Activity calls are given as the source filed them. No stated cut-off is given here; in the data, actives have a measured IC50 and inactives only a lower limit.

For the assay, the target named is Envelope glycoprotein gp160 (Human immunodeficiency virus 1, UniProt Q6QLK5). The experiment in a line: cell-free HIV fusion peptide-binding blockers – biochemical, uHTS, fluorescence dequenching, […] (AID 1986).
Sequence of Envelope glycoprotein gp160 (Q6QLK5 whole entry, the tested form may be a part): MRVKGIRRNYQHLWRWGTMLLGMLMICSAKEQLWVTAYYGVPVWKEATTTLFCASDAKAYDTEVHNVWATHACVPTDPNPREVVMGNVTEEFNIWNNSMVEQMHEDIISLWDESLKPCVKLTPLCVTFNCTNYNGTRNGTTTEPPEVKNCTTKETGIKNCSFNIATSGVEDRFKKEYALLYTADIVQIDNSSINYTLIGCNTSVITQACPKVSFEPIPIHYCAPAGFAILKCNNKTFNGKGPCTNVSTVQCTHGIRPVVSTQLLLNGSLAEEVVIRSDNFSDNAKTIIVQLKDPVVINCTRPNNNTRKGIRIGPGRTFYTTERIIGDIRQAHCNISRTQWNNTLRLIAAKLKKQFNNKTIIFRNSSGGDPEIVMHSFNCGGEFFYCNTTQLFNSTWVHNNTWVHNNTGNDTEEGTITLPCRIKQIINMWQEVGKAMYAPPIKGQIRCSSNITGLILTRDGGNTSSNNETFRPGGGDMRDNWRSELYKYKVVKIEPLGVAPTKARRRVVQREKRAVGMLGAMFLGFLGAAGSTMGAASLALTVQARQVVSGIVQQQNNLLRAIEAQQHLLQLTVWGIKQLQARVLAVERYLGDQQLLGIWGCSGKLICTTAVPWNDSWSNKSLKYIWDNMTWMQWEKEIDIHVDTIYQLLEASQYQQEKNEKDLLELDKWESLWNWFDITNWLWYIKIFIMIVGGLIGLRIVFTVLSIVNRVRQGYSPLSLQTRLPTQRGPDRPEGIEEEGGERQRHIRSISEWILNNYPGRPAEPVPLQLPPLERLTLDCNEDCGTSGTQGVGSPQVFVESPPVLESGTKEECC
Regarding `CCCOc1ccc(C(=O)NNC(=S)NC(=O)c2cc(-c3ccccc3)nc3ccccc23)cc1`, the 50% inhibitory concentration (IC50) (in general, the point on the concentration scale where inhibition reaches its midpoint) is 30.9 µM (active). The result for `CCC(C)(C)C1CCc2c(sc(NC(=O)c3ccccc3C(=O)O)c2C#N)C1` (stereo not drawn) reads 12.9 µM (active). The result for `Cc1cccc(C)c1-n1cccc1/C=C1\SC(=S)N(c2cccc(C(=O)O)c2)C1=O` reads 22.4 µM (active).

Source of the values: ChEMBL document CHEMBL1201862, “PubChem BioAssay data set” (2004).
